This data set can be described thus: gradient 5% acetonitrile 3 min, to 50% in 2 min, to 85% in 15 min, held 3 min, 100 µL/min. To be noted: column: Zorbax Extend-C18 2.1 x 50 mm; eluents: water / acetonitrile, 0.1% formic acid. In short, it runs like this: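 Retention times come from adduct peaks that were picked computationally and then checked by hand. The standards, pure and pooled in mixtures of ~100 molecules, were run on a Zorbax Extend-C18 column (2.1 × 50 mm, 1.8 μm) at 100 μL/min with water and acetonitrile, each with 0.1% formic acid. Detection was by quadrupole time-of-flight mass spectrometry in positive and negative ionization mode, with a dead volume of 40 μL and a dwell volume of 900 μL.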
With `CC1CCC(NC(=O)c2nnn(Cc3cccc(F)c3)c2-n2cccc2)CC1` (stereo not given), the RP-LC retention time was determined as 1160 s. Consider `Cc1ccc(-n2nc(C)c3c(C)cc(OCC(=O)Nc4ccc5c(c4)OCO5)nc32)cc1`, for which the RP-LC retention time stood at 1020 s.

As for `Cc1ccccc1NS(=O)(=O)c1ccc2c(c1)CCCC(=O)N2`, the RP-LC retention time is 725 s. In the case of `Cc1cccc(CCNC(=O)C2CCCN(c3ncnc4c3nc3n4CCCCC3)C2)c1` (stereo not given), the RP-LC retention time was determined as 819 s. In turn, `Cc1ccc(N2C(=O)CCS2(=O)=O)cc1S(=O)(=O)N1c2ccccc2CC1C` (stereo not given) had an RP-LC retention time of 867 s. Turning to `CCc1cccc(NC(=O)C2CCN(S(=O)(=O)c3cc(C(=O)N4CCCC4)n(C)c3)CC2)c1`, the RP-LC retention time turned out to be 872 s.

As to `COC1CN(c2cccc(F)c2)C12CCN(S(=O)(=O)c1cccc(F)c1)CC2` (stereo not given), the RP-LC retention time stood at 1200 s. As to `CCCc1noc(-c2ccnc(-n3ncc(C(=O)NCC)c3C)c2)n1`, the RP-LC retention time was determined as 828 s.

Take `Cc1ncc2c(n1)C[C@@H]1CC[C@H]2N1C(=O)Nc1ccccc1`: the RP-LC retention time amounted to 636 s. `Fc1ccc(-c2ccnc3nc(-c4ccccc4)nn23)cc1`: the RP-LC retention time was found to be 949 s. Molecule `O=c1ccc(-c2ccc3c(c2)OCO3)nn1CCc1nc(-c2ccccc2Cl)no1` showed an RP-LC retention time of 966 s. As to `Cc1cc(C(=O)NCc2ccc(F)cc2)n(-c2ccccc2)n1`, the RP-LC retention time stood at 813 s.

Take `c1cc2c(cc1-c1nnc(C3CC3)o1)OCO2`: the RP-LC retention time amounted to 781 s. Then `CCOc1ccccc1-n1nnc(C(=O)OCc2nc(-c3ccccc3)oc2C)c1C`, with 1090 s; and `COc1ccccc1-c1noc(Cn2c(=O)n(Cc3ccc(C)cc3)c(=O)c3sccc32)n1`, with 1100 s; and `Cc1nc2ccccc2c(=O)n1Cc1noc(Cc2ccc(Br)cc2)n1`, with 917 s. The molecule `Cc1nn(-c2ccccc2)c2nc(N3CCCC(C(=O)NCCN4CCOCC4)C3)sc12` (stereo not given) returned an RP-LC retention time of 670 s.

`COc1cc2c(cc1OC)CN(CCc1ccc(NC(=O)c3cc(OC)c(OC)cc3NC(=O)c3cnc4ccccc4c3)cc1)CC2`: the RP-LC retention time came out at 777 s. In the case of `CCc1ccc(N2CC(c3noc(-c4ccc(F)cc4)n3)CC2=O)cc1` (stereo not given), the RP-LC retention time came to 1100 s. Take `O=C(c1cccc(OC(F)(F)F)c1)N1C[C@@H]2C[C@H]1C[C@@H]2NS(=O)(=O)c1ccccc1`: the RP-LC retention time came to 887 s. Molecule `CCn1nc(C)c(CCN(C)C(=O)Nc2ccccc2Br)c1C` registered an RP-LC retention time of 705 s. Turning to `Cc1ccc(S(=O)(=O)N2C[C@@H](F)C[C@H]2C(=O)N2CCc3ccccc3C2)cc1Cl`, the RP-LC retention time was 1020 s. On to `COc1ccc(CC(=O)Nc2ccc3c(c2)Sc2ncccc2C(=O)N3C)cc1Cl`, for which the RP-LC retention time was determined as 807 s. Regarding `Cc1onc(-c2ccc(F)cc2F)c1C(=O)NC(C)C`, the RP-LC retention time turned out to be 789 s. The molecule `CCOc1ccccc1CNC(=O)CN1CCN(Cc2cccc(Cl)c2)C1=O` registered an RP-LC retention time of 910 s. `COc1ccc(C(=O)NCc2cccnc2OC)c(OC)n1` returned an RP-LC retention time of 840 s.

The molecule `Cc1nc([C@@H]2CN(C(=O)c3sc(C)nc3C)C[C@H]2C(N)=O)n[nH]1` returned an RP-LC retention time of 550 s. In the case of `O=C(OCc1ccncc1)c1cn(-c2ccc(F)cc2)c(=O)c2ccccc12`, the RP-LC retention time is 703 s. In turn, `CNC(=O)N1CCCC(c2nc(C(C)C)no2)CCNC(=O)CC1` (stereo not given) returned an RP-LC retention time of 606 s. As for `O=[N+]([O-])c1ccccc1OCC(O)CN1CCN(c2ccccc2F)CC1` (stereo not given), the RP-LC retention time is 577 s. In turn, `Cc1ccc(CN2CCN(CC(=O)NC3CCN(Cc4ccccc4)CC3)C(=O)C2=O)cc1` displayed an RP-LC retention time of 614 s.

With `CC1CCc2nc(NC(=O)c3cc(Cl)sc3Cl)sc2C1` (stereo not given), the RP-LC retention time came to 1170 s. Regarding `COC(=O)c1c(C)[nH]c(C(=O)N2CCC(CC(=O)N3CCCC3)CC2)c1C`, the RP-LC retention time is 628 s. In turn, `CCC(C)(C)NS(=O)(=O)c1cc(-c2nc(C)cs2)n(CC(=O)N2CCCC2)c1` had an RP-LC retention time of 967 s.

Turning to `COc1ccc(OC)c(-c2ccc(=O)n(CCc3nc(-c4cccc(F)c4)no3)n2)c1`, the RP-LC retention time was found to be 974 s. `CCc1noc(NC(C)=O)c1-c1ccc(C)c(S(=O)(=O)N(CC)CC)c1` registered an RP-LC retention time of 836 s.

Molecule `COCCN1C(=O)CCc2cc(NC(C)=O)ccc21` registered an RP-LC retention time of 604 s. The molecule `COC(=O)c1nnn(-c2cccc(Cl)c2C)c1C(=O)OC` had an RP-LC retention time of 936 s. `O=C(Nc1nc2c(s1)CCCC2C(=O)N1CCc2ccccc21)c1ccc2c(c1)OCO2` (stereo not given) returned an RP-LC retention time of 949 s. On to `CC(C)NC(=O)c1cc(=O)[nH]c2c(Cl)cccc12`, for which the RP-LC retention time turned out to be 737 s. For the molecule `Cc1ncn(CC(=O)Nc2cccc(Cl)c2)c(=O)c1C`, the RP-LC retention time was 705 s. With `CN(C)[C@@H]1CN(C(=O)c2cccc(Br)c2)C[C@H]1CO`, the RP-LC retention time is 573 s. For the molecule `COc1ccc(CN2CCc3nc(N4CCN(c5ncccn5)CC4)ncc3C2)c(OC)c1`, the RP-LC retention time was found to be 664 s.

On to `CCCn1c(=O)c(N2CCN(C(=O)CC(C)C)CC2)nc2ccccc21`, for which the RP-LC retention time was determined as 1010 s. For `COc1ccc(-c2nc(-c3ccc4c(c3)ncn4CCC(=O)N3CCCC3)no2)cc1`, the RP-LC retention time was 742 s. In the case of `CCC(C)NC(=O)N1CCn2nnc(CCC(=O)N3CCOCC3)c2C1` (stereo not given), the RP-LC retention time stood at 598 s. On to `COc1ccc(N2C=C(C#N)S(=O)(=O)c3c(F)cccc32)cc1OC`, for which the RP-LC retention time was 844 s. The molecule `O=C1c2ccccc2C(=O)N1c1nc(-c2ccccc2)cs1` came in with an RP-LC retention time of 864 s. As to `OCC1CN(c2ncccn2)CC12CCN(Cc1ccc3[nH]ccc3c1)CC2` (stereo not given), the RP-LC retention time was determined as 577 s. `CCC(=O)N1CCc2c(c(C(=O)N3CCC(C(=O)NCc4ccc(OC)cc4)CC3)nn2C)C1` had an RP-LC retention time of 640 s. In turn, `O=C(NC1CC1)[C@@H]1C[C@H](Oc2ccccc2)CN1C(=O)CCC1CCCC1` showed an RP-LC retention time of 886 s. As to `Cn1c(=O)c(-c2ccc(C(=O)NC3CCCCC3)cc2)nc2cccnc21`, the RP-LC retention time was found to be 882 s.

`O=C(CC1CCCC1)NCCC1CCN(C(=O)Nc2ccc(F)cc2F)CC1` had an RP-LC retention time of 812 s.

`CCN1C(=O)c2cccnc2Sc2cc(CNC(=O)c3ccco3)ccc21` showed an RP-LC retention time of 701 s. In turn, `CCN1CCN(C(=O)C2Cc3cc(S(=O)(=O)N4CCCCC4)ccc3N2C(C)=O)CC1` (stereo not given) had an RP-LC retention time of 601 s. In turn, `Cc1cc(S(=O)(=O)NCCc2cn(C)c3ncccc23)ccc1F` registered an RP-LC retention time of 745 s. In turn, `Cc1cc(S(=O)(=O)N2CCOC23CCN(C(=O)C2CC2)CC3)ccc1F` gave an RP-LC retention time of 789 s. Molecule `CCOc1cccc(-c2noc(Cn3ncn4nc(-c5ccc(C)cc5C)cc4c3=O)n2)c1` came in with an RP-LC retention time of 1330 s. In turn, `CCc1ccccc1NC(=O)c1nnn(-c2ccc3noc(-c4ccccc4)c3c2)c1C` returned an RP-LC retention time of 1160 s.

`Cc1ccc2nc3c(C(=O)NC4CC4)cccn3c(=O)c2c1`: the RP-LC retention time is 942 s. Then `O=C(NCC(=O)N1CCCc2ccccc21)c1ccccc1`, with 777 s; and `Cc1cc(F)ccc1NC(=O)c1cnc2c(c1)c(=O)n(C)c(=O)n2-c1ccccc1`, with 854 s.

Take `CCS(=O)(=O)N1CCC(C(=O)NCCc2csc(-c3ccccc3)n2)CC1`: the RP-LC retention time amounted to 765 s. Then `CCN(CC)c1nc(-c2ccccc2F)nc2ccccc12`, with 700 s; and `CC(C)c1nccn1C1CN(C(=O)c2ccc3[nH]ccc3c2)C1`, with 580 s; and `Cn1nnc2ccc(-c3noc(-c4ccc(Cl)cc4)n3)cc21`, with 1090 s.

With `O=C(c1c(F)cccc1F)N(CC1CCOC1)C1CC1` (stereo not given), the RP-LC retention time was determined as 769 s. Molecule `CCS(=O)(=O)c1ccc(C(=O)Nc2nc3c(s2)CC(C)CC3)cc1` (stereo not given) displayed an RP-LC retention time of 867 s. `O=C(Nc1ccc(F)cc1)N1CCC(n2c(-c3ccco3)nc3cccnc32)C1` (stereo not given) had an RP-LC retention time of 749 s. In turn, `Cc1ccc(CNC(=O)C2CCN(S(=O)(=O)c3cc(C(=O)N4CCCC4)n(C)c3)CC2)cc1` displayed an RP-LC retention time of 872 s. Regarding `COc1ccccc1NC(=O)C1=C(C)NC(=O)NC1c1cccs1` (stereo not given), the RP-LC retention time worked out at 665 s. The result for `CCCNC(=O)N1CCCC(c2nn(C)c(=O)n2CC)C1` (stereo not given) reads 602 s; that for `CS(=O)(=O)N1CCC(C(=O)NCC2(CO)CC2)CC1`, 536 s; that for `CCc1nc(-c2csc(S(=O)(=O)N3CCC(C(=O)N4CCOCC4)CC3)c2)no1`, 796 s. For the molecule `CCc1cc(C2CCCN2C(=O)NCc2ccccc2)on1` (stereo not given), the RP-LC retention time came out at 766 s. `COc1ccc(NC(=O)c2cc(C(C)(C)C)n3nccc3n2)c(C)c1` showed an RP-LC retention time of 1240 s.

In turn, `Cn1cccc1Cc1nnc(SCC(=O)NCC2CCCO2)n1Cc1ccccc1` (stereo not given) gave an RP-LC retention time of 741 s.

The molecule `O=C(Nc1cccc(Cl)c1)N1CCC(N2CCN(Cc3ccccc3)C(=O)C2=O)CC1` showed an RP-LC retention time of 736 s. Then `Cc1ccsc1C(=O)N1CCC2(CC1)NC(=O)N(Cc1ccccc1)C2=O`, with 768 s; and `CCC(=O)Nc1ccc(C2(C(=O)NCC(C)C)CCCCC2)cc1`, with 859 s.

Source of the values: the METLIN SMRT retention time set (Domingo-Almenara et al. 2019).
